Source: ChEMBL document CHEMBL4725351, “Cyclic Derivative of Host-Defense Peptide IDR-1018 Improves Proteolytic Stability, Suppresses Inflammation, and Enhances In Vivo Activity” (J Med Chem, 2020)
Activity calls are given as the source filed them. No cut-off for these calls is given here.

Assays:
Staphylococcus aureus [1] = assay: Antibacterial activity against methicillin-resistant Staphylococcus aureus SAP0017 measured after overnight incubation by microtitre plate based spectrophotometric method; format: functional
Staphylococcus aureus [2] = assay: Antibacterial activity against methicillin-resistant Staphylococcus aureus USA300 LAC measured after overnight incubation by microtitre plate based spectrophotometric method; format: functional
Pseudomonas aeruginosa [3] = assay: Antibacterial activity against Pseudomonas aeruginosa PA14 measured after overnight incubation by microtitre plate based spectrophotometric method; format: functional
Pseudomonas aeruginosa [4] = assay: Antibacterial activity against Pseudomonas aeruginosa PAO1 measured after overnight incubation by microtitre plate based spectrophotometric method; format: functional
Escherichia coli [5] = assay: Antibacterial activity against Escherichia coli ATTC 489 measured after overnight incubation by microtitre plate based spectrophotometric method; format: functional
Acinetobacter baumannii [6] = assay: Antibacterial activity against Acinetobacter baumannii 5015 measured after overnight incubation by microtitre plate based spectrophotometric method; format: functional
Acinetobacter baumannii [7] = assay: Antibacterial activity against Acinetobacter baumannii 17918 measured after overnight incubation by microtitre plate based spectrophotometric method; format: functional
Klebsiella pneumoniae [8] = assay: Antibacterial activity against Klebsiella pneumoniae ATTC 13883 measured after overnight incubation by microtitre plate based spectrophotometric method; format: functional
Staphylococcus aureus [9] = assay: Antibiofilm activity against methicillin-resistant Staphylococcus aureus USA300 LAC incubated for 24 hrs under shaking condition by turbidometric method; format: functional
Pseudomonas aeruginosa [10] = assay: Antibiofilm activity against Pseudomonas aeruginosa PA14 incubated for 24 hrs under shaking condition by turbidometric method; format: functional
Pseudomonas aeruginosa [11] = assay: Antibiofilm activity against Pseudomonas aeruginosa PAO1 incubated for 24 hrs under shaking condition by turbidometric method; format: functional
Escherichia coli [12] = assay: Antibiofilm activity against Escherichia coli ATTC 489 incubated for 24 hrs under shaking condition by turbidometric method; format: functional
Acinetobacter baumannii [13] = assay: Antibiofilm activity against Acinetobacter baumannii 5015 incubated for 24 hrs under shaking condition by turbidometric method; format: functional
Acinetobacter baumannii [14] = assay: Antibiofilm activity against Acinetobacter baumannii 17918 incubated for 24 hrs under shaking condition by turbidometric method; format: functional
Klebsiella pneumoniae [15] = assay: Antibiofilm activity against Klebsiella pneumoniae ATTC 13883 incubated for 24 hrs under shaking condition by turbidometric method; format: functional
Pseudomonas aeruginosa [16] = assay: Antibiofilm activity against 24 hrs preformed Pseudomonas aeruginosa PA14 biofilm assessed as reduction in biofilm viability at 7.2 to 30.3 uM by TTC assay relative to control; format: functional; settings: dose microM 7.2-30.3
Pseudomonas aeruginosa [17] = assay: Antibiofilm activity against 24 hrs preformed Pseudomonas aeruginosa PAO1 biofilm assessed as reduction in biofilm viability at 7.2 to 30.3 uM by TTC assay relative to control; format: functional; settings: dose microM 7.2-30.3
Escherichia coli [18] = assay: Antibiofilm activity against 24 hrs preformed Escherichia coli ATTC 489 biofilm assessed as reduction in biofilm viability at 7.2 to 30.3 uM by TTC assay relative to control; format: functional; settings: dose microM 7.2-30.3
Acinetobacter baumannii [19] = assay: Antibiofilm activity against 24 hrs preformed Acinetobacter baumannii 5015 biofilm assessed as reduction in biofilm viability at 7.2 to 30.3 uM by TTC assay relative to control; format: functional; settings: dose microM 7.2-30.3
Acinetobacter baumannii [20] = assay: Antibiofilm activity against 24 hrs preformed Acinetobacter baumannii 17918 biofilm assessed as reduction in biofilm viability at 7.2 to 30.3 uM by TTC assay relative to control; format: functional; settings: dose microM 7.2-30.3
Klebsiella pneumoniae [21] = assay: Antibiofilm activity against 24 hrs preformed Klebsiella pneumoniae ATTC 13883 biofilm assessed as reduction in biofilm viability at 7.2 to 30.3 uM by TTC assay relative to control; format: functional; settings: dose microM 7.2-30.3
Trypsin [22] = target: T1, Trypsin (Homo sapiens, UniProt P07477+P07478+P35030); assay: Stability of the compound in pH 8.2 ammonium bicarbonate buffer assessed as trypsin (unknown origin)-mediated compound cleavage at carboxy-terminal side of arginine at 20 ug/ml measured within 30 mins by RP-HPLC analysis; format: ADME, protein assay; settings: pH 8.2, 0.5 h, at 20 µg/mL
Trypsin [23] = target: T1, Trypsin; assay: Stability of the compound in pH 8.2 ammonium bicarbonate buffer assessed as trypsin (unknown origin)-ILPWK formation at 20 ug/ml measured within 30 mins by MALDI-TOF analysis; format: ADME, protein assay; settings: pH 8.2, 0.5 h, dose 20 µg/ml
Trypsin [24] = target: T1, Trypsin; assay: Stability of the compound in pH 8.2 ammonium bicarbonate buffer assessed as trypsin (unknown origin)-mediated drug degradation at 20 ug/ml measured up to 120 mins by MALDI-TOF analysis; format: ADME, protein assay; settings: pH 8.2, 2 h, at 20 µg/mL
Trypsin [25] = target: T1, Trypsin; assay: Stability of the compound in pH 8.2 ammonium bicarbonate buffer assessed as trypsin (unknown origin)-mediated drug degradation at 20 ug/ml measured up to 120 mins by RP-HPLC analysis; format: ADME, protein assay; settings: pH 8.2, 2 h, at 20 µg/mL
Trypsin [26] = target: T1, Trypsin; assay: Stability of the compound in pH 8.2 ammonium bicarbonate buffer assessed as trypsin (unknown origin)-mediated drug degradation at 20 ug/ml measured after 120 mins by RP-HPLC analysis; format: ADME, protein assay; settings: buffer, pH 8.2, 2 h, at 20 µg/mL
[27] = Aggregation property of the compound in water at 1 mg/ml by turbidimetric method; format: physicochemical; settings: buffer
[28] = Aggregation property of the compound in saline at 1 mg/ml by turbidimetric method; format: physicochemical; settings: buffer
[29] = Aggregation property of the compound in 5% dextrose at 1 mg/ml by turbidimetric method; format: physicochemical
[30] = Aggregation property of the compound in RPMI medium with 1% FBS at 1 mg/ml by turbidimetric method; format: physicochemical
[31] = Aggregation property of the compound in sodium citrate solution at 10 mM by turbidimetric method; format: physicochemical; settings: 10000 µM
[32] = Aggregation property of the compound in sodium phosphate solution at 10 mM by turbidimetric method; format: physicochemical; settings: 10000 µM
[33] = Aggregation property of the compound in sodium nitrate solution at 10 mM by turbidimetric method; format: physicochemical; settings: 10000 µM
[34] = Aggregation of the compound in human PBMC assessed as amorphous morphology at 50 ug/ml measured after 4 hrs by microscopic analysis; format: ADME, tissue-based; settings: dose 50 µg/ml
[35] = Cytotoxicity against human PBMC assessed as reduction in cell viability at 100 ug/ml measured after 24 hrs by LDH assay; format: tissue-based; settings: dose 100 µg/ml
PBMC [36] = assay: Immunomodulatory activity in human PBMC assessed as increase in MCP1 production at 25 ug/ml measured after overnight incubation by ELISA; format: functional, tissue-based; settings: dose 25.0 µg/ml
PBMC [37] = assay: Immunomodulatory activity in human PBMC assessed as change in TNFalpha production at 25 ug/ml measured after overnight incubation by ELISA; format: functional, tissue-based; settings: dose 25.0 µg/ml
PBMC [38] = assay: Immunomodulatory activity in human PBMC assessed as increase in IL-1RA production at 25 ug/ml measured after overnight incubation by ELISA; format: functional, tissue-based; settings: dose 25.0 µg/ml
PBMC [39] = assay: Immunomodulatory activity in human PBMC assessed as reduction in LPS-induced TNFalpha production at 25 ug/ml measured after overnight incubation by ELISA; format: functional, tissue-based; settings: dose 25.0 µg/ml
[40] = Immunomodulatory activity in human PBMC assessed as increase in LPS-induced MCP1 production at 25 ug/ml measured after overnight incubation by ELISA; format: functional; settings: dose 25 µg/ml
PBMC [41] = assay: Immunomodulatory activity in human PBMC assessed as reduction in LPS-induced IL1beta production at 25 ug/ml measured after overnight incubation by ELISA; format: functional, tissue-based; settings: dose 25.0 µg/ml
[42] = Toxicity in CD1 mouse assessed as precipitation under the skin at 10 mg/kg, sc measured after 16 hrs; format: organism-based; settings: in vivo
Staphylococcus aureus [43] = assay: Antibacterial activity against Staphylococcus aureus USA300 LAC infected in CD1 mouse assessed as dermonecrosis area at 7.5 mg/kg, sc administered at infection site measured after 3 days by caliper method (Rvb > 75 mm2); format: functional; settings: time 3 day

Substance: H-VRLIVAVRIWRR-NH2
- MIC (Staphylococcus aureus [1]): 32.5 µM
- MIC (Staphylococcus aureus [2]): 32.5 µM
- MIC (Pseudomonas aeruginosa [3]): 32.5 µM
- MIC (Pseudomonas aeruginosa [4]): 32.5 µM
- MIC (Escherichia coli [5]): 65.8 µM
- MIC (Acinetobacter baumannii [6]): 32.5 µM
- MIC (Acinetobacter baumannii [7]): 32.5 µM
- MIC (Klebsiella pneumoniae [8]): 16.2 µM
- MBEC (Staphylococcus aureus [9]): 7.8 µM
- MBEC (Pseudomonas aeruginosa [10]): 16.2 µM
- MBEC (Pseudomonas aeruginosa [11]): 16.2 µM
- MBEC (Escherichia coli [12]): 10.4 µM
- MBEC (Acinetobacter baumannii [13]): 16.2 µM
- MBEC (Acinetobacter baumannii [14]): 16.2 µM
- MBEC (Klebsiella pneumoniae [15]): 10.4 µM
- Activity (Pseudomonas aeruginosa [16]): 70%
- Activity (Pseudomonas aeruginosa [17]): 70%
- Activity (Escherichia coli [18]): 70%
- Activity (Acinetobacter baumannii [19]): 70%
- Activity (Acinetobacter baumannii [20]): 70%
- Activity (Klebsiella pneumoniae [21]): 70%
- Stabilty (Trypsin [22]): Unstable
- Drug metabolism (Trypsin [23]): Metabolite_Detected
- Stabilty (Trypsin [24]): Stable
- Stabilty (Trypsin [25]): Stable
- Stabilty (Trypsin [26]): Unstable
- Activity [27]: Not Active
- Activity [28]: Not Active
- Activity [29]: Not Active
- Activity [30]: Active
- Activity [31]: Active
- Activity [32]: Active
- Activity [33]: Active
- Activity [34]: Active
- Activity [35]: Toxic
- Activity (PBMC [36]): Active
- Activity (PBMC [37]): inactive
- Activity (PBMC [38]): Active
- Activity (PBMC [39]): Active
- Activity [40]: 35%
- Activity (PBMC [41]): Active
- Activity [42]: Toxic
- Activity (Staphylococcus aureus [43]): 30 mm2
